In patent US20060275520A1, “White peony extract for improving the duration and quality of sleep” (Access Business Group International LLC, priority 2005, published 2006):

Target: GABA-A receptors
Assay: GABA-A Agonist binding assay (NovaScreen), [3H]-GABA displacement
Set-up: species or system bovine
Conditions: converted from μg/ml; read-out: IC50 for paeoniflorin converted to molarity
Method: These GABA-A Agonist assays were conducted by NovaScreen Biosciences Corporation (Hanover, Md.) and are described in Falch E., et al., 1986. […] 47(3): 898-903 and Enna S. J., et al., 1977.
(§1) In particular, the GABA-A Agonist binding assays use bovine cerebellar membranes as the source of GABA-A receptors. GABA-A, radio labeled with tritium (^3H), is used as both the reference compound and positive control.
The bovine cerebellar membranes are exposed to both [^3H]-GABA and extracts of the desired test substance. In this instance, the bovine cerebellar membranes were exposed to: six extracts of white peony root at concentrations of 0.01, 0.03, 0.1, 0.3, 1, 3, and 10 μg/ml. The GABA-A Agonist assay measures how much radio labeled GABA-A binds to the GABA-A receptors present in the bovine cerebellar membranes.
The results of the GABA-A Agonist binding assays are shown in FIGS. 19-24 and are expressed below in Table I as IC50 in μg/ml.
as §1, with “control. The bovine cerebellar membranes are exposed to both [^3H]-GABA and extracts of the desired test substance. […]” for “control.”

SMILES: C[C@@]12C[C@@]3(O)O[C@@H](O1)[C@]1(COC(=O)c4ccccc4)[C@H]3C[C@@]12O[C@@H]1O[C@H](CO)[C@@H](O)[C@H](O)[C@H]1O [paeoniflorin]
- IC50: ~625 nM
